Laboratory results as given in patent US10406227B2, “Photoactivated molecules for light-induced modulation of the activity of electrically excitable cells and methods of using same” (University of Southern California, priority 2012, dated 2019).
Read-outs that look alike come from different tables or passages of the source.

What was measured:
[1] = tested on: whole-mount retinas from RCS rats; test: Whole-mount retina multi-electrode array recording; format: cell-based, rat
Description: FIGS. 14A-14B depicts data from whole-mount retinas from RCS rats. […] Each bin represents the frequency of spikes for 1 second. Before Rubpy treatment (14A), illumination at 480 nm elicited minimal change in spike frequency. […] Downward arrows mark the time of 100 ms (1st) and 1 second (2nd to fourth) light stimuli.
The retina will be freshly dissected from Royal College of Surgeons (RCS) rats (9 months' or older to ensure total loss of photoreceptors). The whole-mount retina will then be placed onto a multi-electrode array with the ganglion cell layer side facing the electrodes and is held down on the array using a lightly weighted porous membrane. Extracellular field potentials are recorded from 15 or 75 μm diameter electrodes using an MEA1060-Up amplifier and MC Rack software (Multi-Channel Systems). The activity of the retinal in response to illumination is monitored before and after PVN incubation. The retina is continuously perfused with oxygenated (95% O2, 5% CO2), heated (32C) Ames' Medium for baseline activity. The retina is then perfused with Ames' Medium containing PVN for 30 min to 1 hr, followed by 10 min wash with regular Ames' Medium before recording in Ames' Medium with 5-10 mM ascorbate. The retina will be illuminated by white LED light through a bandpass excitation filter (460-500 nm) with durations of 100 μs, 1 ms, 10 ms, 100 ms, 1 s and 30 s. […]

[2] = cited from earlier work
RCS rats = test: Extracellular recording from superior colliculus after intravitreal injection; format: in vivo, rat
Description: This finding was reproduced in 3 of 3 RCS rats injected with Rubpy-C17, and in 2 of 2 control (sham injection) RCS rats.

HEK293T cells [3] = test: Imaging RubpyC17 in live cells (membrane luminescence); format: cell-based, human
Procedure: Cells were imaged at 1-3 days after plating. The glass-bottomed chambers with adherent cells were washed twice with PBS and then filled with standard extracellular solution consisting of 140 mM NaCl, 2.8 mM KCl, 10 mM HEPES, 1 mM MgCl2, 2 mM CaCl2, and 10 mM glucose, pH adjusted to 7.2-7.4 and osmolarity adjusted to 290-310 mOsm. The chamber was then mounted on an Olympus IX70 inverted microscope stage for imaging, using a Cascade 512B EMCCD camera, operated by Metamorph software. Initial imaging was done with cells in extracellular solution without RubpyC17, first under brightfield to evaluate cell health and morphology, then under widefield argon ion laser illumination at 488 nm (Coherent, Innova 90-5, Santa Clara, Calif.), to evaluate autofluorescence. Next, the extracellular solution was removed and replaced with extracellular solution containing the RubpyC17 compound (10 μM in ≤0.01% DMSO, final concentrations). Cell images were then acquired with illumination at 488 nm (collected with a long-pass red emission filter). For electrophysiological experiments, RubpyC17 compound was added to the extracellular solution (2-10 μM in ≤0.01% DMSO, final concentrations as indicated) and cells were incubated for 1.5-45 min, as indicated, then washed with extracellular solution without RubpyC17. Some chromaffin cells were also exposed continuously to 490-900 nM RubpyC17-containing extracellular solution.
Illustrated here are rat insulinoma INS cells (FIG. 1C, top), human embryonic kidney (HEK293T) cells (FIG. 1C, middle), and primary cultured mouse chromaffin cells (FIG. 1C, bottom). […] All cell types preserved morphology for at least 10 minutes. […] One embodiment of the possible light-induced electron transfer is depicted in FIG. 1D.

HEK293T cells [4] = test: Whole cell patch clamp, current-clamp membrane potential under blue light; format: cell-based, human
Procedure: Membrane potential was monitored using whole cell patch clamp in current-clamp mode. Cultured cells (INS and HEK293) were plated on a glass-bottomed culture dishes 1-3 days prior to recording. Cells were incubated in standard extracellular solution with or without 10 μM RubpyC17 compound for approximately 1.5-2 minutes, then washed and incubated with standard extracellular solution without additional supplementation, or with 2-5 mM ascorbate, 100 μM sodium ferrocyanide, or 100-200 μM potassium ferricyanide, as indicated. The chamber was transferred to the microscope stage. Extracellular solution consisted of 140 mM NaCl, 2.8 mM KCl, 10 mM HEPES, 1 mM MgCl2, 2 mM CaCl2, 10 mM glucose, pH adjusted to 7.3, and osmolarity adjusted to 300-310. Conventional whole-cell patch clamp recordings were performed with an EPC-9 amplifier and Pulse software (HEKA Electronics). Pipette electrodes of 1.8-3.5 Mohm were fire polished before use. Intracellular solution consisted of: 145 mM KCl, 10 mM NaCl, 1 mM MgCl2, 1 mM EGTA, 2 mM ATP, 0.3 mM GTP and 10 mM HEPES, pH adjusted to 7.3 and osmolarity adjusted to 290-300 mOsm. To monitor changes in membrane voltage/potential, cells were patch clamped in current-clamp mode. Access resistances were in the range of 3-8 Mohm. Using Pulse, membrane potentials were recorded before, during and after illumination by the argon ion laser at 488 nm with an irradiance value of 0.458 mE s^−1 m^−2 or by a xenon lamp source through a 470/40 nm bandpass excitation filter with an irradiance value of 0.480 mE s^−1 m^−2. […]
Initial attempts were tied to INS and HEK cells, both cells that are not excitable under normal conditions (INS cells were maintained in low glucose <3 mM to prevent action potentials). […] To monitor the plasma membrane potential, the cells were patch-clamped in whole-cell configuration in current-clamp mode and membrane voltages were recorded while illuminating the cell at 488 nm (0.46-0.48 mE s^−1 m^−2), though other wavelengths are useful, depending on the embodiment.

For [Ru(bpy)2(bpy-C17)](PF6)2 [RubpyC17], the “spike frequency on illumination” value ([1]; 100 micromolar for 30 minutes, 480 nm) is given as “spike frequency increased”, the “light-induced action potential firing” value ([1]; photoreceptor-degenerate retina) is given as “respond to illumination by firing action potentials” and the “electron transfer rate ket” value ([2]; photo-activated RubpyC17 to oxidant ferricyanide, aqueous solution) is given as roughly 6.5e+09 M⁻¹ s⁻¹. The “electron transfer rate ket” value ([2]; reductant ascorbate to photo-activated RubpyC17) was roughly 2e+07 M⁻¹ s⁻¹, the “RCS rats showing light-evoked superior colliculus activity” value (RCS rats; intravitreal, final concentration 100 μM) was 3 of 3 and the “light-evoked electrical activity in superior colliculus” value (RCS rats; intravitreal, final concentration 100 μM, 30 minutes after injection) was “elicited reproducible and stereotypical electrical activity”. For the same substance, the “persistence of light-induced SC electrical responses after injection” value (RCS rats; single eye injection) was “up to 3 days”, the “time cell morphology preserved” value (HEK293T cells [3]; 10 μM RubpyC17) was “at least 10 minutes” and the “incorporation into plasma membrane (membrane-localized luminescence)” value (HEK293T cells [3]; 10 μM in bath, 488 nm excitation) was “rapidly and stably incorporates into mammalian cell membranes”. The “membrane luminescence after removal from bath solution” value (HEK293T cells [3]; 10 minutes after RubpyC17 removal) was “still observed”, the light-induced depolarization (HEK293T cells [4]; 10 μM ~2 min preincubation, 2 mM ascorbate, 488 nm) was 14.6 ± 2.4 mV and the light-induced hyperpolarization (HEK293T cells [4]; 100 uM ferricyanide in extracellular solution) was 20.9 ± 4.9 mV. The “light-induced depolarization with ferrocyanide as reductant” value (HEK293T cells [4]; 0.1 mM ferrocyanide) was “light-induced depolarization was also observed”.
